≈ marks a conversion by molar mass, not a printed value. Values belong to the compound of their own block, whether it stands above or below them.
Key:
Dipeptidyl peptidase 8 = Dipeptidyl peptidase 8 (Homo sapiens, UniProt Q6V1X1); assay: Inhibition of human recombinant DPP8 pre-incubated with compound for 15 mins before substrate addition by luminescence assay
Dipeptidyl peptidase 9 = Dipeptidyl peptidase 9 (Homo sapiens, UniProt Q86TI2); assay: Inhibition of human recombinant DPP9 pre-incubated with compound for 15 mins before substrate addition by luminescence assay
Sequence of Dipeptidyl peptidase 9 (Q86TI2 whole entry): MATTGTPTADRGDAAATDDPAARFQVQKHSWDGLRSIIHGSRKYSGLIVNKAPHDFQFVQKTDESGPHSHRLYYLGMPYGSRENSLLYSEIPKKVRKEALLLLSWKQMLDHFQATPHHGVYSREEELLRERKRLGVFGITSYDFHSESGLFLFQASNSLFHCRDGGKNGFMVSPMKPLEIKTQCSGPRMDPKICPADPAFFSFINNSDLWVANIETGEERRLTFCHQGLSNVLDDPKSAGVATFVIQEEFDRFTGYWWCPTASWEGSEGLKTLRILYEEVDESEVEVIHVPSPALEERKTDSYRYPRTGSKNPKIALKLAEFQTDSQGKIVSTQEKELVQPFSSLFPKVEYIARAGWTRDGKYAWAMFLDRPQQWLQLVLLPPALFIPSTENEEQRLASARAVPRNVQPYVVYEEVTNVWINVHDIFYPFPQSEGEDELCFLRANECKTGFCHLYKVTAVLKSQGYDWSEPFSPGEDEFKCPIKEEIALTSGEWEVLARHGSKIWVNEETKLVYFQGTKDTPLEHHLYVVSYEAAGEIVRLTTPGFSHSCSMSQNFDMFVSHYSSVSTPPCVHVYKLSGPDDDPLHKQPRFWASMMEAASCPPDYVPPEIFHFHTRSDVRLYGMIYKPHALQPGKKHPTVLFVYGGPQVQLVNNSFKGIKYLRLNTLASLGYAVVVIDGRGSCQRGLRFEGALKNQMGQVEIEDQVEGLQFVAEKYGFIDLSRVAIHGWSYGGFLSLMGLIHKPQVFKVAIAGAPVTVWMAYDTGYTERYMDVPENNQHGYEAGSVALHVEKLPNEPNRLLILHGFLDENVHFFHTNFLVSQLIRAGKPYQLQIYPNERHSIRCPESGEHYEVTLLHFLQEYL

[1] = Clearance in rat at 2 mg/kg, iv; format: ADME, organism-based; design: dose 2 mg/kg, route intravenous; conditions: in vivo
[2] = Volume of distribution at steady state in rat at 2 mg/kg, iv; format: ADME, organism-based; design: dose 2 mg/kg, route intravenous; conditions: in vivo, read-out: Vdss
[3] = Half life in rat at 2 mg/kg, iv; format: ADME, organism-based; design: dose 2 mg/kg, route intravenous; conditions: in vivo
[4] = Cmax in rat at 4 mg/kg, po; format: ADME, organism-based; design: dose 4 mg/kg, route oral; conditions: in vivo
[5] = AUClast in rat at 4 mg/kg, po; format: ADME, organism-based; design: time 0 - last, dose 4 mg/kg, route oral; conditions: plasma
[6] = Half life in rat at 4 mg/kg, po; format: ADME, organism-based; design: dose 4 mg/kg, route oral; conditions: in vivo
[7] = Oral bioavailability in rat at 4 mg/kg; format: ADME, organism-based; conditions: in vivo
[8] = Half life in rat at 10 mg/kg, iv; format: ADME, organism-based; design: dose 10 mg/kg, route intravenous; conditions: in vivo
[9] = Cmax in rat at 10 mg/kg, po; format: ADME, organism-based; design: dose 10 mg/kg, route oral; conditions: in vivo
[10] = AUClast in rat at 10 mg/kg, po; format: ADME, organism-based; design: time 0 - last, dose 10 mg/kg, route oral; conditions: plasma
[11] = Half life in rat at 10 mg/kg, po; format: ADME, organism-based; design: dose 10 mg/kg, route oral; conditions: in vivo
[12] = Oral bioavailability in rat at 10 mg/kg; format: ADME, organism-based; conditions: in vivo
[13] = Clearance in dog at 6.25 mg/kg, iv; format: ADME, organism-based, Canis lupus familiaris; design: dose 6.25 mg/kg, route intravenous; conditions: in vivo
[14] = Volume of distribution at steady state in dog at 6.25 mg/kg, iv; format: ADME, organism-based, Canis lupus familiaris; design: dose 6.25 mg/kg, route intravenous; conditions: in vivo, read-out: Vdss
[15] = Half life in dog at 6.25 mg/kg, iv; format: ADME, organism-based, Canis lupus familiaris; design: dose 6.25 mg/kg, route intravenous; conditions: in vivo
[16] = Cmax in dog at 5 mg/kg, po; format: ADME, organism-based, Canis lupus familiaris; design: dose 5 mg/kg, route oral; conditions: in vivo
[17] = AUClast in dog at 5 mg/kg, po; format: ADME, organism-based, Canis lupus familiaris; design: time 0 - last, dose 5 mg/kg, route oral; conditions: plasma
[18] = Half life in dog at 5 mg/kg, po; format: ADME, organism-based, Canis lupus familiaris; design: dose 5 mg/kg, route oral; conditions: in vivo
Mus musculus [19] = assay: Inhibition of DPP4 activity in C57BL/6 mouse at 1 mg/kg, po administered as single dose 30 mins before orally glucose challenge and measured 20 mins post oral glucose challenge by luminescence assay; format: functional
[20] = Oral bioavailability in dog at 5 mg/kg; format: ADME, organism-based, Canis lupus familiaris; conditions: in vivo
[21] = Clearance in monkey at 5 mg/kg, iv; format: ADME, organism-based, Macaca mulatta; design: dose 5 mg/kg, route intravenous; conditions: rhesus monkey, in vivo
[22] = Volume of distribution at steady state in monkey at 5 mg/kg, iv; format: ADME, organism-based, Macaca mulatta; design: dose 5 mg/kg, route intravenous; conditions: rhesus monkey, in vivo, read-out: Vdss
[23] = Half life in monkey at 5 mg/kg, iv; format: ADME, organism-based, Macaca mulatta; design: dose 5 mg/kg, route intravenous; conditions: rhesus monkey, in vivo
[24] = Cmax in monkey at 10 mg/kg, po; format: ADME, organism-based, Macaca mulatta; design: dose 10 mg/kg, route oral; conditions: rhesus monkey, in vivo
[25] = AUClast in monkey at 10 mg/kg, po; format: ADME, organism-based, Macaca mulatta; design: dose 10 mg/kg, route oral, time 0 - last; conditions: rhesus monkey, plasma
[26] = Half life in monkey at 10 mg/kg, po; format: ADME, organism-based, Macaca mulatta; design: dose 10 mg/kg, route oral; conditions: rhesus monkey, in vivo
[27] = Oral bioavailability in monkey at 10 mg/kg; format: ADME, organism-based, Macaca mulatta; conditions: rhesus monkey, in vivo
Mus musculus [28] = assay: Antidiabetic activity in C57BL/6 mouse assessed as plasma glucose level at 0.1 mg/kg, po administered as single dose 30 mins before orally glucose challenge by oral glucose tolerance test (reference value: 15.6 mM); format: functional
Mus musculus [29] = assay: Antidiabetic activity in C57BL/6 mouse assessed as plasma glucose level at 0.3 mg/kg, po administered as single dose 30 mins before orally glucose challenge by oral glucose tolerance test (reference value: 15.6 mM); format: functional
Mus musculus [30] = assay: Antidiabetic activity in C57BL/6 mouse assessed as plasma glucose level at 1 mg/kg, po administered as single dose 30 mins before orally glucose challenge by oral glucose tolerance test (reference value: 15.6 mM); format: functional
Mus musculus [31] = assay: Inhibition of DPP4 activity in C57BL/6 mouse at 3 mg/kg, po administered as single dose 30 mins before orally glucose challenge and measured 20 mins post oral glucose challenge by luminescence assay; conditions: C57BL/6, po, read-out: INH
Mus musculus [32] = assay: Inhibition of DPP4 activity in C57BL/6 mouse at 0.1 mg/kg, po administered as single dose 30 mins before orally glucose challenge and measured 20 mins post oral glucose challenge by luminescence assay; format: functional
Mus musculus [33] = assay: Inhibition of DPP4 activity in C57BL/6 mouse at 0.3 mg/kg, po administered as single dose 30 mins before orally glucose challenge and measured 20 mins post oral glucose challenge by luminescence assay; format: functional
Mus musculus [34] = assay: Increase in plasma GLP1 level in C57BL/6 mouse at 0.1 mg/kg, po administered as single dose 30 mins before orally glucose challenge and measured 20 mins post oral glucose challenge by ELISA method (reference value: 4 pM); format: functional
Mus musculus [35] = assay: Increase in plasma GLP1 level in C57BL/6 mouse at 0.3 mg/kg, po administered as single dose 30 mins before orally glucose challenge and measured 20 mins post oral glucose challenge by ELISA method (reference value: 4 pM); format: functional
Mus musculus [36] = assay: Increase in plasma GLP1 level in C57BL/6 mouse at 1 mg/kg, po administered as single dose 30 mins before orally glucose challenge and measured 20 mins post oral glucose challenge by ELISA method (reference value: 4 pM); format: functional
[37] = Plasma concentration in C57BL/6 mouse at 3 mg/kg, po administered as single dose 30 mins before orally glucose challenge and measured 20 mins post oral glucose challenge; format: ADME, organism-based; design: dose 3 mg/kg, route oral
[38] = Plasma concentration in C57BL/6 mouse at 0.1 mg/kg, po administered as single dose 30 mins before orally glucose challenge and measured 20 mins post oral glucose challenge; format: ADME, organism-based; design: dose 0.1 mg/kg, route oral
[39] = Plasma concentration in C57BL/6 mouse at 0.3 mg/kg, po administered as single dose 30 mins before orally glucose challenge and measured 20 mins post oral glucose challenge; format: ADME, organism-based; design: dose 0.3 mg/kg, route oral
[40] = Plasma concentration in C57BL/6 mouse at 1 mg/kg, po administered as single dose 30 mins before orally glucose challenge and measured 20 mins post oral glucose challenge; format: ADME, organism-based; design: dose 1 mg/kg, route oral
Mus musculus [41] = assay: Antidiabetic activity in C57BL/6 mouse assessed as reduction in plasma glucose AUC (0 to 120 mins) at 0.1 mg/kg, po administered as single dose 30 mins before orally glucose challenge by oral glucose tolerance test; format: functional; conditions: C57BL/6, Plasma
Mus musculus [42] = assay: Antidiabetic activity in C57BL/6 mouse assessed as reduction in plasma glucose AUC (0 to 120 mins) at 0.3 mg/kg, po administered as single dose 30 mins before orally glucose challenge by oral glucose tolerance test; format: functional; conditions: C57BL/6, Plasma
Mus musculus [43] = assay: Antidiabetic activity in C57BL/6 mouse assessed as reduction in plasma glucose AUC (0 to 120 mins) at 1 mg/kg, po administered as single dose 30 mins before orally glucose challenge by oral glucose tolerance test; format: functional; conditions: C57BL/6, Plasma
Mus musculus [44] = assay: Toxicity in db/db mouse assessed as effect on body weight administered with food formulated compound for 28 days; format: organism-based; conditions: in vivo, po, 672 h
[45] = Solubility in pH 1.2 solution; format: physicochemical
[46] = Solubility in pH 4.5 solution; format: physicochemical
[47] = Solubility in pH 6.8 solution; format: physicochemical
[48] = Permeability from apical to basolateral side in human Caco2 cells; format: ADME, cell-based; conditions: Caco-2, read-out: permeability
[49] = Permeability from basolateral to apical side in human Caco2 cells; format: ADME, cell-based; conditions: Caco-2, read-out: permeability
[50] = Protein binding in rat; format: ADME, organism-based; conditions: in vivo, read-out: PB (converted)
[51] = Protein binding in dog; format: ADME, organism-based, Canis lupus familiaris; conditions: in vivo, read-out: PB (converted)
[52] = Protein binding in human; format: ADME, organism-based; conditions: in vivo, read-out: PB (converted)
Cytochrome P450 3A4 = Cytochrome P450 3A4 (Homo sapiens, UniProt P08684); assay: Inhibition of CYP3A4 (unknown origin); format: ADME
Sequence of Cytochrome P450 3A4 (P08684 whole entry): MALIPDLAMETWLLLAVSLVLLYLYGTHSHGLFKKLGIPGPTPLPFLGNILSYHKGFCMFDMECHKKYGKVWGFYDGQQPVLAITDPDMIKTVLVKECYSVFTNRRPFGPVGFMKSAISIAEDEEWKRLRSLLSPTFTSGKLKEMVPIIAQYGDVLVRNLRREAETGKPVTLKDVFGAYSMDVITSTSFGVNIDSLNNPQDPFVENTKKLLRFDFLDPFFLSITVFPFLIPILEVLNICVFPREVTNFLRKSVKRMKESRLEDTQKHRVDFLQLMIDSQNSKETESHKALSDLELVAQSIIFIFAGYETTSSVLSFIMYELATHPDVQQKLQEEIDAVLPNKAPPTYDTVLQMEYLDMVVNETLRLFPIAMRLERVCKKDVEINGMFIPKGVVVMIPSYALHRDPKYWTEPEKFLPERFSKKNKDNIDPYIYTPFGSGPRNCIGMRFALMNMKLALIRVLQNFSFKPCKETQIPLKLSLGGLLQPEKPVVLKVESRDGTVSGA

Cytochrome P450 2D6 = Cytochrome P450 2D6 (Homo sapiens, UniProt P10635); assay: Inhibition of CYP2D6 (unknown origin); format: ADME
Sequence of Cytochrome P450 2D6 (P10635 whole entry): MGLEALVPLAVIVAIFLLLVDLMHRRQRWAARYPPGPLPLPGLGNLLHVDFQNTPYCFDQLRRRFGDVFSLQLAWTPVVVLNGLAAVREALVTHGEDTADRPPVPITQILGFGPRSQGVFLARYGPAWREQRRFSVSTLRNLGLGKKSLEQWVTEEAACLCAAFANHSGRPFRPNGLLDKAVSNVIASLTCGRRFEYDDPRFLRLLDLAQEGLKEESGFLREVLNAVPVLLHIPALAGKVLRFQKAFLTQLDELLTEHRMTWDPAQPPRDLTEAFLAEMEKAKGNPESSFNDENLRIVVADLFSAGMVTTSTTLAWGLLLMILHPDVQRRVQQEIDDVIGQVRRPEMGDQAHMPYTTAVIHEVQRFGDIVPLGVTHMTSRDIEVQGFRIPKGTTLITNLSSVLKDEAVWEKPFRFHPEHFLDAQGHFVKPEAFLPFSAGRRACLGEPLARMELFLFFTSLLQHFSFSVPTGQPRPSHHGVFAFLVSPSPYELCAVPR

Cytochrome P450 2C9 = Cytochrome P450 2C9 (Homo sapiens, UniProt P11712); assay: Inhibition of CYP2C9 (unknown origin); format: ADME
Sequence of Cytochrome P450 2C9 (P11712 whole entry): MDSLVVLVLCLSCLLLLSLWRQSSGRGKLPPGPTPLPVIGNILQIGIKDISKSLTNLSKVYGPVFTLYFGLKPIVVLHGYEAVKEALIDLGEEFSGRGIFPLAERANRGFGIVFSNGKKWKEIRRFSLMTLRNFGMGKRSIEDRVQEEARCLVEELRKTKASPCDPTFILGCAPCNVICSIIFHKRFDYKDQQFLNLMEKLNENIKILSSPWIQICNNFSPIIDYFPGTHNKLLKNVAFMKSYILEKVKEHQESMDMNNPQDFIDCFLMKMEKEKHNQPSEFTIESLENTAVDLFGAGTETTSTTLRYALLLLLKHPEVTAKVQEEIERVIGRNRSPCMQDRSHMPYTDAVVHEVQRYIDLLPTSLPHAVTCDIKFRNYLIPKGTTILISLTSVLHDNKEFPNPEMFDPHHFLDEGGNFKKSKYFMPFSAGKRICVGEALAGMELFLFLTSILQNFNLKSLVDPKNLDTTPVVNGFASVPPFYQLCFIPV

Cytochrome P450 2C19 = Cytochrome P450 2C19 (Homo sapiens, UniProt P33261); assay: Inhibition of CYP2C19 (unknown origin); format: ADME
Sequence of Cytochrome P450 2C19 (P33261 whole entry): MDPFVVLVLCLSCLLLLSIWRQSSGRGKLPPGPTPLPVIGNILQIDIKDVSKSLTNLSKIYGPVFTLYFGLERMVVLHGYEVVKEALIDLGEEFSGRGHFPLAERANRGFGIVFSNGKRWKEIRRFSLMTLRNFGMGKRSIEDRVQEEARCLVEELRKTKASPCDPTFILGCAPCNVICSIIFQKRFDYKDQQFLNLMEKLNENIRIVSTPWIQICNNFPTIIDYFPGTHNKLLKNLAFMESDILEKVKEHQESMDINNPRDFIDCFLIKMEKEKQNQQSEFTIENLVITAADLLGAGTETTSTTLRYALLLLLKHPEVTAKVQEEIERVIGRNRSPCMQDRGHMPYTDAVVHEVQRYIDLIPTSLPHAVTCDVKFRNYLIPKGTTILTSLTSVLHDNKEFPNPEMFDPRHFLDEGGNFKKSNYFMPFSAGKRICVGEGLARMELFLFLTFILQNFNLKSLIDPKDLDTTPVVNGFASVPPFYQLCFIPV

[53] = target: Voltage-gated inwardly rectifying potassium channel KCNH2 (Homo sapiens, UniProt Q12809); assay: Inhibition of human ERG
Sequence of Voltage-gated inwardly rectifying potassium channel KCNH2 (Q12809 whole entry): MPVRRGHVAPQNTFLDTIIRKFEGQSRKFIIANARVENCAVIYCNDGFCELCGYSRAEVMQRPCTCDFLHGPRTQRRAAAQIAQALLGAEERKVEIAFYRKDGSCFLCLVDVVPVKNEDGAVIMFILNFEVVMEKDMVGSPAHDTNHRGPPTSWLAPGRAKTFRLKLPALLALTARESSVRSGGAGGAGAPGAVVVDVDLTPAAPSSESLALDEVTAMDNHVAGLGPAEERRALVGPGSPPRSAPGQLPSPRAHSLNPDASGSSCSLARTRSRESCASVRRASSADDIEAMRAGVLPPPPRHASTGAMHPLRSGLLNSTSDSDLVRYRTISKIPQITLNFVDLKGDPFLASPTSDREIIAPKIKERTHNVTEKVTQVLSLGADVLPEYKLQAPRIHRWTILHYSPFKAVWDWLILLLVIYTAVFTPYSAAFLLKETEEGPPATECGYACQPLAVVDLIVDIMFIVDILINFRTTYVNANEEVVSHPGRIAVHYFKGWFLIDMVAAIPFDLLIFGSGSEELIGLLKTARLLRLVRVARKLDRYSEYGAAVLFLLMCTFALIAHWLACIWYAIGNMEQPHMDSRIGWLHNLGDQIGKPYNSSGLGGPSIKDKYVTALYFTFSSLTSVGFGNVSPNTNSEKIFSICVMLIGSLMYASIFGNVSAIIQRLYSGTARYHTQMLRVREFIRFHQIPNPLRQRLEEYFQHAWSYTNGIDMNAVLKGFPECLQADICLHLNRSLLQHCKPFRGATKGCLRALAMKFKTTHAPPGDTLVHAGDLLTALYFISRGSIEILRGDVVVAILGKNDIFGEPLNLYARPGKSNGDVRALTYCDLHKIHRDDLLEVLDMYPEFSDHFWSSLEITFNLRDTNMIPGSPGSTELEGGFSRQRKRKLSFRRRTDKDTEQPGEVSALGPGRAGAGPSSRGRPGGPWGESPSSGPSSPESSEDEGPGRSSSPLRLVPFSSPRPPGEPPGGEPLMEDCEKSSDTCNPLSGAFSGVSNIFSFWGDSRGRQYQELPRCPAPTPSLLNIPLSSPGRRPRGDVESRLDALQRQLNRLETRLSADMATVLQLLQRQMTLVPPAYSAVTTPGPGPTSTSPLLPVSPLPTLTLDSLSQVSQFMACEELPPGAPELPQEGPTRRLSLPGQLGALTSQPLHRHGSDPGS

Canis familiaris = assay: Cardiotoxicity in conscious dog assessed as induction of QT prolongation up to 20 mg/kg; format: toxicity, organism-based, Canis lupus familiaris; design: dose 20 mg/kg; conditions: in vivo
Salmonella typhimurium = assay: Genotoxicity in Salmonella typhimurium at 5000 ug/plate by Ames test; format: toxicity, organism-based; conditions: salmonella enterica subsp. enterica serovar typhimurium
[54] = Toxicity in rat after 28 days; format: organism-based; conditions: in vivo
Mus musculus [55] = organism: Mus musculus; assay: animal or person; conditions: C57BL/6, Plasma, po, read-out: INH
Mus musculus [56] = organism: Mus musculus; assay: animal or person; conditions: C57BL/6, Plasma, po, read-out: MED

Sequence of Dipeptidyl peptidase 8 (Q6V1X1 whole entry): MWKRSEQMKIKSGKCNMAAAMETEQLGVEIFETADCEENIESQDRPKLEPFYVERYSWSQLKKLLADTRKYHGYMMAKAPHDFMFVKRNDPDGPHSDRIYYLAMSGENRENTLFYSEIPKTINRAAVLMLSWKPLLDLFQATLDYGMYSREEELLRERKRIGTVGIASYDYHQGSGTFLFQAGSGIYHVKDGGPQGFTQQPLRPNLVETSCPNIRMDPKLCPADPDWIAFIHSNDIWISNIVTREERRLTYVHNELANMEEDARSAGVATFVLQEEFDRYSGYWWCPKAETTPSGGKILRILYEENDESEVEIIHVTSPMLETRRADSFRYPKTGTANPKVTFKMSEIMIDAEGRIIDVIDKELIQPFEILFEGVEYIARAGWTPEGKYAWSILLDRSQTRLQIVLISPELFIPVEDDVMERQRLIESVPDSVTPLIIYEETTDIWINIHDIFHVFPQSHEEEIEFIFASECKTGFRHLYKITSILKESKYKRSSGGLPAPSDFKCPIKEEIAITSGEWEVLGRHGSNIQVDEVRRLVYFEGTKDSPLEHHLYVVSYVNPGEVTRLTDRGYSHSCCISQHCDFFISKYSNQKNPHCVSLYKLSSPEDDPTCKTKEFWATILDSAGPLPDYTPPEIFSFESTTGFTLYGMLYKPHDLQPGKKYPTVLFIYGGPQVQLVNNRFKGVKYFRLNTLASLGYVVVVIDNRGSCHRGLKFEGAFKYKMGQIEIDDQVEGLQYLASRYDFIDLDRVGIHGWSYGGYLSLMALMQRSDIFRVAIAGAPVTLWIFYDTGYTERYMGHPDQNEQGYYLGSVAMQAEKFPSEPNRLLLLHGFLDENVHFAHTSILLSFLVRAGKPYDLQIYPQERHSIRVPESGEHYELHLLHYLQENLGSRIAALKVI

IC50 (Dipeptidyl peptidase 8): > 100 µM
IC50 (Dipeptidyl peptidase 9): > 100 µM
clearance [1]: 36 mL/min/kg
Vd [2]: 12.2 L/kg
half-life [3]: 283 min
Cmax [4]: 256 ng/mL
AUC(0-t) [5]: 1610 ng·h/mL
half-life [6]: 264 min
bioavailability [7]: 89%
Compound: Cn1c(=O)n(Cc2ccccc2C#N)c2c(N3CCC[C@@H](N)C3)cc(C(F)(F)F)nc21

Compound: Cc1cc(N2CCC[C@@H](N)C2)c2c(n1)n(C)c(=O)n2Cc1ccccc1C#N
half-life [8]: 110 min
Cmax [9]: 1250 ng/mL
AUC(0-t) [10]: 3980 ng·h/mL
half-life [11]: 144 min
bioavailability [12]: 97%
clearance [13]: 35.3 mL/min/kg
Vd [14]: 2.46 L/kg
half-life [15]: 67.2 min
Cmax [16]: 1360 ng/mL
AUC(0-t) [17]: 3630 ng·h/mL
half-life [18]: 78 min
inhibition in vivo at 1 mg/kg (Mus musculus [19]): 71.2%
bioavailability [20]: 89%
clearance [21]: 11.2 mL/min/kg
Vd [22]: 2.44 L/kg
half-life [23]: 221 min
Cmax [24]: 3030 ng/mL
AUC(0-t) [25]: 12900 ng·h/mL
half-life [26]: 288 min
bioavailability [27]: 86%
Activity (Mus musculus [28]): 14.1 mM
Activity (Mus musculus [29]): 12.4 mM
Activity (Mus musculus [30]): 11.4 mM
inhibition in vivo at 3 mg/kg (Mus musculus [31]): 82.1%
inhibition in vivo at 0.1 mg/kg (Mus musculus [32]): 23.8%
inhibition in vivo at 0.3 mg/kg (Mus musculus [33]): 43.8%
Activity (Mus musculus [34]): 5.7 pM
Activity (Mus musculus [35]): 5.7 pM
Activity (Mus musculus [36]): 6.9 pM
concentration at 20 min [37]: 129 ng/mL
concentration at 20 min [38]: 3.9 ng/mL
concentration at 20 min [39]: 10.3 ng/mL
concentration at 50 min [40]: 36.1 ng/mL
inhibition in vivo at 0.1 mg/kg (Mus musculus [41]): 3%
inhibition in vivo at 0.3 mg/kg (Mus musculus [42]): 40%
inhibition in vivo at 1 mg/kg (Mus musculus [43]): 57%
Activity (Mus musculus [44]): Non-toxic
solubility [45]: 560 mg/mL (≈ 1490 mM)
solubility [46]: 560 mg/mL (≈ 1490 mM)
solubility [47]: 551 mg/mL (≈ 1460 mM)
Papp A→B [48]: 9 ×10⁻⁶ cm/s
Papp B→A [49]: 28 ×10⁻⁶ cm/s
fraction unbound [50]: 0.58
fraction unbound [51]: 0.26
fraction unbound [52]: 0.38
INH (Cytochrome P450 3A4): > 30 µM
INH (Cytochrome P450 2D6): > 30 µM
INH (Cytochrome P450 2C9): > 30 µM
INH (Cytochrome P450 2C19): > 30 µM
INH [53]: > 25 µM
Activity (Canis familiaris): Non-toxic
Activity (Salmonella typhimurium): Non-toxic
NOAEL at 672 h [54]: 150 mg/kg
inhibition in vivo at 3 mg/kg (Mus musculus [55]): 65%
minimal effective dose (Mus musculus [56]): 0.3 mg/kg

From ChEMBL document CHEMBL3351303, “Discovery of Imigliptin, a Novel Selective DPP-4 Inhibitor for the Treatment of Type 2 Diabetes” (ACS Med Chem Lett, 2014)
